Laboratory results published in ChEMBL document CHEMBL4673253, “Discovery of EST73502, a Dual μ-Opioid Receptor Agonist and σ Receptor Antagonist Clinical Candidate for the Treatment of Pain” (J Med Chem, 2020).
≈ marks a conversion by molar mass, not a printed value.

How the values were obtained:
[1] = Mutagenicity in Salmonella typhimurium by Ames test; format: toxicity; settings: salmonella enterica subsp. enterica serovar typhimurium
[2] = tested on: Mus musculus; assay: Antinociceptive activity in CD1 mouse at 10 to 40 mg/kg, po co-treated with 64 mg/kg, sc sigma1R agonist PRE-084 by paw pressure test; format: functional; settings: dose 10-40 mg/kg
[3] = Toxicity in CD1 mouse PSNL model assessed as induction of opiate withdrawal by measuring expression of some behavioral signs measured immediately after naloxone injection at 1.25 mg/kg, ip BID for 11 days from day 13 to day 22 and measured on day 23; format: organism-based; settings: in vivo, 264 h, time 11 day
[4] = tested on: Mus musculus; assay: Antinociceptive activity in orally dosed CD1 mouse assessed as by paw pressure test; format: functional; settings: CD1, po
[5] = Thermodynamic solubility of compound at pH 7.4; format: physicochemical; settings: buffer, read-out: Therm_solubility
[6] = target: CYP2C9 (Homo sapiens, UniProt P11712); assay: Inhibition of human CYP2C9 at 1 uM relative to control; format: ADME
[7] = Lipophilicity, logD of compound; format: physicochemical; settings: octanol/water
[8] = target: T1, CYP1A2 (Homo sapiens, UniProt P05177); assay: Inhibition of human CYP1A2 at 1 uM relative to control; format: ADME
T1 sequence (P05177 whole entry): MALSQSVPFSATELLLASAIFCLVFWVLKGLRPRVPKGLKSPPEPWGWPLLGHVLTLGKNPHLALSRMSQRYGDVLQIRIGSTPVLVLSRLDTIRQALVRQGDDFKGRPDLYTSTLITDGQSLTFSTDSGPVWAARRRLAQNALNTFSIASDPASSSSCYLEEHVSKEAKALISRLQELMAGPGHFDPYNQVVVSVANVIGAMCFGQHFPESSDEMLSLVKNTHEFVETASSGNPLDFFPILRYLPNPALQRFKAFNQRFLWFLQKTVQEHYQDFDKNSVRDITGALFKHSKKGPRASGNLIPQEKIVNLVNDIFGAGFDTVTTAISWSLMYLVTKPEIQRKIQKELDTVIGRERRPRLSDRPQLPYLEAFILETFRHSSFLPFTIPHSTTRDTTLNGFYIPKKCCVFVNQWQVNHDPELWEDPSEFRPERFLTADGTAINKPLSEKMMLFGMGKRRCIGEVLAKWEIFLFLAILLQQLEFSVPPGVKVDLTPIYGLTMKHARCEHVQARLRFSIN

[9] = Intrinsic clearance in human liver microsomes; format: ADME, Microsome; settings: read-out: CLH
[10] = tested on: HepG2; assay: Toxicity in human HepG2 cells assessed as reduction in cell viability up to 100 uM by MTT assay; format: cell-based
[11] = tested on: HepG2; assay: Toxicity in human HepG2 cells assessed as reduction in cell viability up to 100 uM by neutral red uptake assay; format: cell-based
[12] = target: Voltage-gated inwardly rectifying potassium channel KCNH2 (Homo sapiens, UniProt Q12809)
Description: Inhibition of human ERG expressed in CHO cells at -80 mV holding potential by whole cell patch clamp assay

[13] = target: CYP2C19 (Homo sapiens, UniProt P33261); assay: Inhibition of human CYP2C19 at 1 uM relative to control; format: ADME
[14] = Toxicity in CD1 mouse assessed as inhibition of intestinal transit by measuring percentage of distance traveled by charcoal meal at 40 mg/kg, po; format: organism-based; settings: in vivo
[15] = tested on: Mus musculus; assay: Antinociceptive activity in CD1 mouse PSNL model assessed as reduction in mechanical allodynia by measuring decrease in the pressure required to elicit withdrawal of the ipsilateral paw after von Frey filament stimulation at 5 mg/kg, ip BID for 11 days from day 13 to day 22; format: functional; settings: 264 h, time 11 day
[16] = target: hERG (KCNH2) (Homo sapiens, UniProt Q12809); assay: Inhibition of human ERG expressed in CHO cells at 10 uM at -80 mV holding potential by whole cell patch clamp assay; format: cell-based; settings: CHO cells expressing human ERG
[17] = Distribution coefficient, logD of compound at pH 7.4; format: physicochemical; settings: octanol/water
[18] = target: CYP2D6 (Homo sapiens, UniProt P10635); assay: Inhibition of human CYP2D6 at 1 uM relative to control; format: ADME
[19] = Permeability in human Caco-2 cells; format: ADME, cell-based
[20] = target: T2, Alpha-1A adrenergic receptor (Homo sapiens) (UniProt P35348); assay: Binding affinity to human alpha1A adrenoreceptor expressed in membranes assessed as inhibition of [3H]-prazosin binding incubated for 90 mins by scintillation counting method; parameters: concentration or dose not given beside the values; settings: Cell membrane
T2 sequence (whole entry): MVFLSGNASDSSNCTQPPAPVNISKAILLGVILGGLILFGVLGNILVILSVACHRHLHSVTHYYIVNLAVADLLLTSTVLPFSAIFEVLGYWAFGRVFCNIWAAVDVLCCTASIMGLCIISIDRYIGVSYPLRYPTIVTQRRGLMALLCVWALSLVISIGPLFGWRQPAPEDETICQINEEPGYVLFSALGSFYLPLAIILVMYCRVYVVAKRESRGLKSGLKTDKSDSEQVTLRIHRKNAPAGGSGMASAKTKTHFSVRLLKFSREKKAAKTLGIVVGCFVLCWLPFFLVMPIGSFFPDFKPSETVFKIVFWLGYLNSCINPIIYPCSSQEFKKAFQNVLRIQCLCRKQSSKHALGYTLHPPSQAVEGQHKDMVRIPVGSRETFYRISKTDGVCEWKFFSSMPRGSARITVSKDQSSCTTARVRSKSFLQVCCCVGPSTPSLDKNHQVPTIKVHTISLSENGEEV

[21] = Toxicity in CD1 mouse PSNL model assessed as induction of opiate withdrawal by measuring expression of some behavioral signs measured immediately after naloxone injection at 5 mg/kg, ip BID for 11 days from day 13 to day 22 and measured on day 23; format: organism-based; settings: in vivo, 264 h, time 11 day
[22] = Thermodynamic solubility of compound at pH 2; format: physicochemical; settings: buffer, read-out: Therm_solubility
[23] = target: CYP3A4 (Homo sapiens, UniProt P08684); assay: Inhibition of human CYP3A4 at 1 uM relative to control; format: ADME
Chain of CYP3A4 (P08684 whole entry): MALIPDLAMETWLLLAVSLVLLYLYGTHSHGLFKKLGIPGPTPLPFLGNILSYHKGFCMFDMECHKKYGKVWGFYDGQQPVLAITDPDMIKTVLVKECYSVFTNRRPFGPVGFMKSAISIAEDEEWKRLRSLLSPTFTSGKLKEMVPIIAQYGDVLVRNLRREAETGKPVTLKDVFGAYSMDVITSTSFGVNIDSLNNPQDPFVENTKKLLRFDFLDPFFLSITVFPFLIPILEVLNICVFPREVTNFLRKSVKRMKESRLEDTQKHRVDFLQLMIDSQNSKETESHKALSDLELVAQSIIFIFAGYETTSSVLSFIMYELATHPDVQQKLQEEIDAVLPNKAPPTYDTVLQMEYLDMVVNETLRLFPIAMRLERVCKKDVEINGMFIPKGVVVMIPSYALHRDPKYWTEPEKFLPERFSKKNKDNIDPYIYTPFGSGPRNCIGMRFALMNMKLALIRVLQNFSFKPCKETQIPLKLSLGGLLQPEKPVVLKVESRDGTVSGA

Chain of CYP2C9 (P11712 whole entry): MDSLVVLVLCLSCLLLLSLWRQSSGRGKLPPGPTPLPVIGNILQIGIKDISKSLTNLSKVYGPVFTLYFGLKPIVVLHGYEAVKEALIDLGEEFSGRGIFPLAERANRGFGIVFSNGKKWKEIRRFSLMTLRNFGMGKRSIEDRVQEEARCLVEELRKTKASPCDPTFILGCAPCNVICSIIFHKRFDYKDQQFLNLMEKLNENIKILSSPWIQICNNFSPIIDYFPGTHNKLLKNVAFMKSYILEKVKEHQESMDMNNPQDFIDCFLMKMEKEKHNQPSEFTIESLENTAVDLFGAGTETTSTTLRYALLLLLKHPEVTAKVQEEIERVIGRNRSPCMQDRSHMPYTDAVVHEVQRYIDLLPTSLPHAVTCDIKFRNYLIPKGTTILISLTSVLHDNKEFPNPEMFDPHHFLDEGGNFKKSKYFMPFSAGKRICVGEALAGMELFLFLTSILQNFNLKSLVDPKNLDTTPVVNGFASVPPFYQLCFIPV
Chain of CYP2C19 (P33261 whole entry): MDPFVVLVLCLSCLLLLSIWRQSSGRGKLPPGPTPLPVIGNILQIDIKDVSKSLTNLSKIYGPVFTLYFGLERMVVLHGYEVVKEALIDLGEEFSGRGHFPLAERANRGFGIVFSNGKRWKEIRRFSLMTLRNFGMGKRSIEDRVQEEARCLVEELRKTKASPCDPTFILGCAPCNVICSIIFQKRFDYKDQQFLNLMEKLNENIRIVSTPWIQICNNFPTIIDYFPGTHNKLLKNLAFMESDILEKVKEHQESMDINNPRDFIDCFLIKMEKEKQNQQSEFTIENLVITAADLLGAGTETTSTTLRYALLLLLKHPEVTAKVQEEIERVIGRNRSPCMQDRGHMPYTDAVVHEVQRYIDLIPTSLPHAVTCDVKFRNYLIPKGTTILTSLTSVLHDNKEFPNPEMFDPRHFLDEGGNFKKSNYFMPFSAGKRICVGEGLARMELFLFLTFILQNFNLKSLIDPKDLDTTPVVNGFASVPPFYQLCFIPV
Chain of CYP2D6 (P10635 whole entry): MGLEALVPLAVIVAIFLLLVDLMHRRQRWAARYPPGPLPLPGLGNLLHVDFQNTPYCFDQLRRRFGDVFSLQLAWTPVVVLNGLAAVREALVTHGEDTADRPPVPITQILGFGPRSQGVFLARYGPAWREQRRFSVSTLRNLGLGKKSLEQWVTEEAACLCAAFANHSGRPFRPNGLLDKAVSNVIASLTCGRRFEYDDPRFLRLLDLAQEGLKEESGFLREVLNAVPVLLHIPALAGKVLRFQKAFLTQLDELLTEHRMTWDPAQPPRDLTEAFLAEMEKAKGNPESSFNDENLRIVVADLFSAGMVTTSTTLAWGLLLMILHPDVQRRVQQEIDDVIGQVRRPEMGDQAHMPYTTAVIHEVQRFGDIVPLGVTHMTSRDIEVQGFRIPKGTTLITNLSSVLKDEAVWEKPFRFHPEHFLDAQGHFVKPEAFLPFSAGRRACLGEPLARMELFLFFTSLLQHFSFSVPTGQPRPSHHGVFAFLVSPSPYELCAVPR
Chain of Voltage-gated inwardly rectifying potassium channel KCNH2 (Q12809 whole entry): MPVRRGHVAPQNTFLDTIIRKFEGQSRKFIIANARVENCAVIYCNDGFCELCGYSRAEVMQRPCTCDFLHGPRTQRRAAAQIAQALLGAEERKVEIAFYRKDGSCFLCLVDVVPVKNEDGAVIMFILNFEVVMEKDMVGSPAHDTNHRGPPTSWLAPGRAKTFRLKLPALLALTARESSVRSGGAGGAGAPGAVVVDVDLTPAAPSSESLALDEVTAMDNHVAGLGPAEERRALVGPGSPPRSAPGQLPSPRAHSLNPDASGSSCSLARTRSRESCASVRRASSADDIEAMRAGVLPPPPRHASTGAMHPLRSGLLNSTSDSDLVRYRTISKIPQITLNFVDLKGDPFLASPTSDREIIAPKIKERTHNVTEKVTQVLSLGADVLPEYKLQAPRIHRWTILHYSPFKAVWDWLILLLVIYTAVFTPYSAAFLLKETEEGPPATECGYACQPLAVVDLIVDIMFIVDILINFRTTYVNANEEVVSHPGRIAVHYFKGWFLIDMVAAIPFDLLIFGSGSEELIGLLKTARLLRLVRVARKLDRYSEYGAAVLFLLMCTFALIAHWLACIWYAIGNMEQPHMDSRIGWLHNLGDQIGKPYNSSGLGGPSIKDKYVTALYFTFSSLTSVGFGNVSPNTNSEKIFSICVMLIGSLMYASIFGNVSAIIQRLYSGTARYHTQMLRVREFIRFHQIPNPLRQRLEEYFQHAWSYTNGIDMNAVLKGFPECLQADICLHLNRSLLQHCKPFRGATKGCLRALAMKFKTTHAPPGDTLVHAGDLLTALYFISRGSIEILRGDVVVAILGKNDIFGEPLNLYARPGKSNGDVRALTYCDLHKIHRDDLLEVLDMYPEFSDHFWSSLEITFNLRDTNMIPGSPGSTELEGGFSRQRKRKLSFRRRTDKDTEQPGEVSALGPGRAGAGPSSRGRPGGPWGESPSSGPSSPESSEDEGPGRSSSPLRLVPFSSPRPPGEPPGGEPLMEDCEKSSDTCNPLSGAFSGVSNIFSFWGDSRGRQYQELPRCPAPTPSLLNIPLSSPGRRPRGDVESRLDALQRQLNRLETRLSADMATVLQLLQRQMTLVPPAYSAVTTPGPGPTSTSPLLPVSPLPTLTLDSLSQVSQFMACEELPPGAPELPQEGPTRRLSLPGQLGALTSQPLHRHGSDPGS
Chain of hERG (KCNH2) (Q12809 whole entry): as above

With `CCN1CC2(CCN(CCc3cc(F)ccc3F)CC2)O[C@H](C)C1=O` the Activity [1] was “Non-Toxic”, the Emax [2] was 40% and the Activity [3] was “Non-Toxic”. The Emax [4] was 64%, the solubility thermodynamic [5] was 17.7 mg/mL (≈ 50.2 mM) and the inhibition at 1 µM [6] was less than 50%. For the same molecule, the logD [7] was 2.7, the inhibition at 1 µM [8] was less than 50% and the microsomal CLint [9] was 2.4 µL/min/mg. The Activity [10] was “Non-Toxic”, the Activity [11] was “Non-Toxic” and the IC50 [12] was greater than 10 µM. The inhibition at 1 µM [13] was less than 50%, the Activity [14] was “Non-Toxic” and the inhibition in vivo at 5 mg/kg [15] was 56%. The inhibition at 10 µM [16] was less than 50%, the logD [17] was 2 and the inhibition at 1 µM [18] was less than 50%. The Papp [19] was 34.9 ×10⁻⁶ cm/s, the inhibition [20] was 21% and the Activity [21] was “Non-Toxic”. It also gave a solubility thermodynamic [22] of 45.1 mg/mL (≈ 128 mM) and an inhibition at 1 µM [23] of less than 50%.
